Experimental data: patent publication US9932584B2, “Interfering RNA delivery system and uses thereof” (Arrowhead Pharmaceuticals Inc., priority 2012, dated 2018)

System: PPIB mRNA
Test: siRNA delivery with CPP-10H peptides, PPIB mRNA by Taqman qRT-PCR
Type: cell-based
Conditions: GTM-3 cells; for suppression of PPIB mRNA expression: PPIB siRNA complexed with peptide 20:1 peptide:siRNA, 1 hour, 48 hour post-transfection, normalized to β-actin mRNA, relative to non-treated cells
Protocol: The ability of 10 histidine residues (10H) to enhance endosomal release of siRNAs delivered using certain cell penetrating peptides (CPPs) was examined. […] (SEQ ID NO: 12). Peptidyl-prolyl cis-trans isomerase B (PPIB) siRNA and Non-Targeting siRNA #2 (NTC2) (Thermo Fisher Scientific, Dharmacon Products, Lafayette, Colo.) were complexed with TAT-10H, CTP-10H, and YM3-10H peptides (Abgent, Inc., San Diego, Calif.) at a 20:1 peptide: siRNA molar ratio for 30 minutes at room temperature, and applied to GTM-3 cells (Pang, I. H., et al., 1994 Curr Eye Res. 13:51-63) at a final siRNA concentration of 100-800 nM for 1 hour. PPIB mRNA and β-actin mRNA levels were determined by Taqman qRT-PCR assay (Applied Biosystems, Austin, Tex.) at 48 hour post-transfection (FIG. 1). Data were normalized to β-actin mRNA, and expressed relative to PPIB mRNA level in non-treated cells.

## CHHHHHGGRRARRRRRRHHGHHC (CHHHHHGGRRARRRRRRHHHHHC) [CTP-10H]
NTC2 non-targeting siRNA delivered with peptide, 800 nM siRNA, possibly due to a cytotoxic effect
  non-specific silencing of PPIB mRNA expression with NTC2 control: significant silencing
100 nM siRNA
  suppression of PPIB mRNA expression: ~80%
200 nM siRNA
  suppression of PPIB mRNA expression: ≥ 90%
800 nM siRNA
  suppression of PPIB mRNA expression: ≥ 90%
